What was measured:
Assay in all cases: GloSensor cAMP assay, inhibition of forskolin-stimulated cAMP
Assay type in all cases: cell-based
hGPR17L-G136S = target: T1, hGPR17L-G136S (Homo sapiens, UniProt Q13304, G136S)
T1 construct: expressed in transfected cells; host or cells: HEK293 (ATCC CRL-1573), transient transfection
Protocol: (§1) HEK293 cells were seeded at 20,000 cells/well into white, opaque 96-well plates. The next day, cells were transiently cotransfected with pGloSensor-cAMP-22F and pcDNA3-HA-hGPR17L or pcDNA3-HA-hGPR17L-variants using lipofectamine 3000. Twenty-four hours posttransfection, growth medium and transfection mix were aspirated and replaced with 100 μl/well equilibration medium (2% Promega GloSensor cAMP reagent [E1291; Promega Corporation] in CO2-independent medium) and incubated at room temperature for 2 h. Baseline luminescence was read on a Molecular Devices SpectraMax iD5 plate reader (Molecular Devices) at ambient room temperature for 8 min. Subsequently, 10 μl/well MDL29,951 diluted in assay buffer (HBSS, 20 mM HEPES, pH 7.2) was added and luminescence was read for 10 min. Finally, 10 μl/well forskolin (1099; Tocris Bioscience) diluted in assay buffer was added and luminescence was measured for 20–30 min. The average luminescence value for the 14–20 min time points for each well was normalized to their average baseline luminescence value and expressed as a percentage of the forskolin-stimulated response within each transfection condition.

hGPR17L-A131T = target: T2, hGPR17L-A131T (Homo sapiens, UniProt Q13304, A131T)
T2 construct: expressed in transfected cells; host or cells: HEK293 (ATCC CRL-1573), transient transfection
Protocol: as §1

hGPR17L-V96M = target: T3, hGPR17L-V96M (Homo sapiens, UniProt Q13304, V96M)
T3 construct: expressed in transfected cells; host or cells: HEK293 (ATCC CRL-1573), transient transfection
Protocol: as §1

hGPR17L-V103M = target: T4, hGPR17L-V103M (Homo sapiens, UniProt Q13304, V103M)
T4 construct: expressed in transfected cells; host or cells: HEK293 (ATCC CRL-1573), transient transfection
Protocol: as §1

hGPR17L-R248Q = target: T5, hGPR17L-R248Q (Homo sapiens, UniProt Q13304, R248Q)
T5 construct: expressed in transfected cells; host or cells: HEK293 (ATCC CRL-1573), transient transfection
Protocol: as §1

hGPR17L-R301H = target: T6, hGPR17L-R301H (Homo sapiens, UniProt Q13304, R301H)
T6 construct: expressed in transfected cells; host or cells: HEK293 (ATCC CRL-1573)
Protocol: as §1

hGPR17L-F43L = target: T7, hGPR17L-F43L (Homo sapiens, UniProt Q13304, F43L)
T7 construct: expressed in transfected cells; host or cells: HEK293 (ATCC CRL-1573), transient transfection
Protocol: as §1

[1] = HEK293, inhibition of 3 μM forskolin-stimulated cAMP
[2] = read-out: cAMP IC50, HEK293, inhibition of 3 μM forskolin-stimulated cAMP

T4 sequence (Q13304 whole entry V103M): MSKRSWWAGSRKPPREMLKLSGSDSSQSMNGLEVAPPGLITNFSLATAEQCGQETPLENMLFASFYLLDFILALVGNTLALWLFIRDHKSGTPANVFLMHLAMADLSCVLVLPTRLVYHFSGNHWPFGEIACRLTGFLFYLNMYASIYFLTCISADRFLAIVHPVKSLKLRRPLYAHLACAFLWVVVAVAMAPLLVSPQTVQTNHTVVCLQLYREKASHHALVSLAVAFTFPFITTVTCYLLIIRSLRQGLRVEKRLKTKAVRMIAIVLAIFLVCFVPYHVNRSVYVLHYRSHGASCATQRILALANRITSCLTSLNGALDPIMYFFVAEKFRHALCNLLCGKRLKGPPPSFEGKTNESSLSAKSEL
T1 sequence (Q13304 whole entry G136S): as the sequence (Q13304 whole entry V103M) above, with M103V, G136S counted along it
T7 sequence (Q13304 whole entry F43L): as the sequence (Q13304 whole entry V103M) above, with F43L, M103V counted along it
T3 sequence (Q13304 whole entry V96M): as the sequence (Q13304 whole entry V103M) above, with V96M, M103V counted along it
T2 sequence (Q13304 whole entry A131T): as the sequence (Q13304 whole entry V103M) above, with M103V, A131T counted along it
T5 sequence (Q13304 whole entry R248Q): as the sequence (Q13304 whole entry V103M) above, with M103V, R248Q counted along it
T6 sequence (Q13304 whole entry R301H): as the sequence (Q13304 whole entry V103M) above, with M103V, R301H counted along it

O=C(O)CCc1c(C(=O)O)[nH]c2cc(Cl)cc(Cl)c12 [MDL29,951]
cAMP 10 μM MDL +3 μM FSK (% of FSK) (hGPR17L-G136S; HEK293, 10 μM MDL29,951): 65 ± 5.0 % of FSK
cAMP 100 μM MDL +3 μM FSK (% of FSK) (hGPR17L-G136S; HEK293, 100 μM MDL29,951): 60 ± 3.4 % of FSK
cAMP pIC50 ± SEM (hGPR17L-G136S; [1]): 5.89 ± 0.30
IC50 (hGPR17L-G136S; [2]): 1300 nM
cAMP Efficacy (% inhibition) (hGPR17L-A131T; HEK293, 3 μM forskolin): 44 ± 4.5 % inhibition
cAMP 10 μM MDL +3 μM FSK (% of FSK) (hGPR17L-A131T; HEK293, 10 μM MDL29,951): 77 ± 3.5 % of FSK
cAMP 100 μM MDL +3 μM FSK (% of FSK) (hGPR17L-A131T; HEK293, 100 μM MDL29,951): 109 ± 5.3 % of FSK
cAMP pIC50 ± SEM (hGPR17L-A131T; [1]): 8.31 ± 0.13
IC50 (hGPR17L-A131T; [2]): 4.9 nM
cAMP Efficacy (% inhibition) (hGPR17L-V96M; HEK293, 3 μM forskolin): 36 ± 4.2 % inhibition
cAMP 10 μM MDL +3 μM FSK (% of FSK) (hGPR17L-V96M; HEK293, 10 μM MDL29,951): 60 ± 5.6 % of FSK
cAMP 100 μM MDL +3 μM FSK (% of FSK) (hGPR17L-V96M; HEK293, 100 μM MDL29,951): 65 ± 4.6 % of FSK
cAMP pIC50 ± SEM (hGPR17L-V96M; [1]): 8.77 ± 0.36
IC50 (hGPR17L-V96M; [2]): 1.7 nM
cAMP Efficacy (% inhibition) (hGPR17L-V103M; HEK293, 3 μM forskolin): 40 ± 1.3 % inhibition
cAMP 10 μM MDL +3 μM FSK (% of FSK) (hGPR17L-V103M; HEK293, 10 μM MDL29,951): 81 ± 4.0 % of FSK
cAMP 100 μM MDL +3 μM FSK (% of FSK) (hGPR17L-V103M; HEK293, 100 μM MDL29,951): 101 ± 4.0 % of FSK
cAMP pIC50 ± SEM (hGPR17L-V103M; [1]): 9.24 ± 0.41
IC50 (hGPR17L-V103M; [2]): 0.57 nM
cAMP Efficacy (% inhibition) (hGPR17L-R248Q; HEK293, 3 μM forskolin): 41 ± 3.9 % inhibition
cAMP 10 μM MDL +3 μM FSK (% of FSK) (hGPR17L-R248Q; HEK293, 10 μM MDL29,951): 84 ± 5.5 % of FSK
cAMP 100 μM MDL +3 μM FSK (% of FSK) (hGPR17L-R248Q; HEK293, 100 μM MDL29,951): 98 ± 6.7 % of FSK
cAMP pIC50 ± SEM (hGPR17L-R248Q; [1]): 8.73 ± 2.2
IC50 (hGPR17L-R248Q; [2]): 1.9 nM
cAMP Efficacy (% inhibition) (hGPR17L-R301H; HEK293, 3 μM forskolin): 52 ± 5.2 % inhibition
cAMP 10 μM MDL +3 μM FSK (% of FSK) (hGPR17L-R301H; HEK293, 10 μM MDL29,951): 72 ± 2.5 % of FSK
cAMP 100 μM MDL +3 μM FSK (% of FSK) (hGPR17L-R301H; HEK293, 100 μM MDL29,951): 101 ± 2.9 % of FSK
cAMP pIC50 ± SEM (hGPR17L-R301H; [1]): 8.00 ± 0.46
IC50 (hGPR17L-R301H; [2]): 10 nM
cAMP Efficacy (% inhibition) (hGPR17L-F43L; HEK293, 3 μM forskolin): 44 ± 2.7 % inhibition
cAMP 10 μM MDL +3 μM FSK (% of FSK) (hGPR17L-F43L; HEK293, 10 μM MDL29,951): 107 ± 24 % of FSK
cAMP 100 μM MDL +3 μM FSK (% of FSK) (hGPR17L-F43L; HEK293, 100 μM MDL29,951): 145 ± 30 % of FSK
cAMP pIC50 ± SEM (hGPR17L-F43L; [1]): 8.81 ± 0.37
IC50 (hGPR17L-F43L; [2]): 1.6 nM

— publication PMC8267566, “Human GPR17 missense variants identified in metabolic disease patients have distinct downstream signaling profiles” (The Journal of Biological Chemistry, 2021)
